Experimental data: ChEMBL document CHEMBL5375988, “AcGlcAs: A Novel P53-Targeting Arsenical with Potent Cellular Uptake and Cancer Cell Selectivity” (J Med Chem, 2023)
The source made the active and inactive calls. The rule behind the calls is not given here.

What was measured:
U-937 [1] = experiment: Antitumor activity against GFP-tagged human U-937 cells harboring p53 V272M mutant xenografted in M-NSG mouse assessed as decrease in leukemia cell population in spleen at 25 mg/kg, ip administered for 9 days starting from 7 days post inoculation and measured on day 2,6 and 9 by FACS analysis; assay type: functional, organism-based; conditions: time 9.0 day
U-937 [2] = experiment: Antitumor activity against human U-937 cells harboring p53 V272M mutant xenografted in M-NSG mouse assessed as median survival at 25 mg/kg, ip administered daily for 11 days (reference value: 11 day); assay type: functional
[3] = biological target: PML-RARalpha (Homo sapiens) (UniProt P10276+P29590); experiment: Induction of PML/RARalpha degradation in human NB4 cells assessed as residual protein level at 9 uM incubated for 1 hrs followed by replacement with fresh culture medium and measured after 16 hrs by Western blot analysis (reference value: 1); assay type: cell-based
PML-RARalpha (Homo sapiens), sequence (P10276 whole entry, looked up): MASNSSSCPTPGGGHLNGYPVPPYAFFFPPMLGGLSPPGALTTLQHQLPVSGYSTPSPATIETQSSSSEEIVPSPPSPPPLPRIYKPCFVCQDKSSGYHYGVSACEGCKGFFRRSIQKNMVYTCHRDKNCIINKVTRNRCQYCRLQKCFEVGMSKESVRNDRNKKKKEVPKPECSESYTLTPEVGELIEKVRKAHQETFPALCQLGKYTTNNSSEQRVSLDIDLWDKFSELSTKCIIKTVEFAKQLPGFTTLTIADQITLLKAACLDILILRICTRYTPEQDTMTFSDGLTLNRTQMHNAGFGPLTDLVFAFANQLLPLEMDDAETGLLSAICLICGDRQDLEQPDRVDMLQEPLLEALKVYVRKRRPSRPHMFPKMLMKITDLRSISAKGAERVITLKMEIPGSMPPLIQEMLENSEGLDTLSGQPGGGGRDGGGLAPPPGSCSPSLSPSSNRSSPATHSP
PML-RARalpha (Homo sapiens), sequence (P29590 whole entry, looked up): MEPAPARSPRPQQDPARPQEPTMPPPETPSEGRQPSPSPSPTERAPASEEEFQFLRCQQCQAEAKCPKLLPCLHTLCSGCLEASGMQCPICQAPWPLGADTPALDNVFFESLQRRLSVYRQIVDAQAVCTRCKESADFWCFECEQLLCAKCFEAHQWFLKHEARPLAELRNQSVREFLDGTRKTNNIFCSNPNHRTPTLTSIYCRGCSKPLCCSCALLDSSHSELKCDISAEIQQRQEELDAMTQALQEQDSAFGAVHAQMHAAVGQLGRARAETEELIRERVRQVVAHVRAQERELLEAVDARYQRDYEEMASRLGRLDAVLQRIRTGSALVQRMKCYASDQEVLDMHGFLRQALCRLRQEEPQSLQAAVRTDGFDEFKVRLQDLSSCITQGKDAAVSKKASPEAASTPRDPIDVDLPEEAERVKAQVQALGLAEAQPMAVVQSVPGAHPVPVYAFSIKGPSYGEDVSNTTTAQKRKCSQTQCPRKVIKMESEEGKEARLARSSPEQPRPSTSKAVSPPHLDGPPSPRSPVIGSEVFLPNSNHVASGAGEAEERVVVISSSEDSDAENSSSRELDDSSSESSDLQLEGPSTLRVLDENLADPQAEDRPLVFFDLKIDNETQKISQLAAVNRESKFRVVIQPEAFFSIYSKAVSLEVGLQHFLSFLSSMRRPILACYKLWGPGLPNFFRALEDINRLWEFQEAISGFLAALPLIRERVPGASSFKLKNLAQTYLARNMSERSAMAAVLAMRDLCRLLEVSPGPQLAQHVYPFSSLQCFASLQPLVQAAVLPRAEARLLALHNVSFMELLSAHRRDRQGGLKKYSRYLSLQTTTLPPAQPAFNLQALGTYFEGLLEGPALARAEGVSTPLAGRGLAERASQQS

U-937 [4] = experiment: Induction of extrinsic apoptosis in human U-937 cells overexpressing p53-V272M mutant assessed as upregulation of DR5 gene expression by RT-qPCR analysis; assay type: functional, cell-based
U-937 [5] = experiment: Antitumor activity against luciferase transduced human U-937 cells harboring p53 V272M mutant xenografted in M-NSG mouse assessed as median survival at 10 mg/kg, iv administered daily for 11 days (reference value: 11 day); assay type: functional
NB-4 [6] = experiment: Induction of apoptosis in human NB4 cells assessed as viable cells at 3 uM preincubated for 1 hrs followed by replacement with fresh culture medium and measured after 24 hrs by Annexin V-FITC/7AAD staining based flow cytometry assay (reference value: 94%); assay type: functional; conditions: read-out: Activity
NB-4 [7] = experiment: Induction of granulocytic differentiation in human NB4 cells assessed as CD11b positive cells at 9 uM incubated for 1 hrs followed by replacement with fresh culture medium for 48 hrs by flow cytometry analysis relative to control; assay type: functional
[8] = test system: Cellular tumor antigen p53 (Homo sapiens), P04637 [V272M]; experiment: Restoration of p53-V272M mutant transcriptional activity on PUMA promoter in human NCI-H1299 cells at 2.5 to 10 uM pretreated with chlorpromazine for 30 mins followed by compound addition for 10 mins and further incubation in fresh medium for 24 hrs by firefly/renilla based luciferase reporter assay; assay type: cell-based; conditions: dose 2.5-10 µM
U-937 [9] = experiment: Upregulation of MDM2 mRNA expression in human U-937 cells overexpressing p53-V272M mutant pretreated for 1 hr followed by culturing in fresh medium for 4 hrs by RT-qPCR analysis; assay type: functional, cell-based
[10] = Drug uptake in human MDA-MB-231 cells at 10 uM measured after 10 mins by ICP-MS analysis; assay type: ADME, cell-based; conditions: mda-mb-231, 10 min
U-937 [11] = experiment: Upregulation of PUMA protein expression in human U-937 cells overexpressing p53-V272M mutant at 0.1 to 0.5 uM pretreated for 1 hr followed by culturing in fresh medium for 16 hrs by Western blot analysis; assay type: functional, cell-based; conditions: dose 0.1-0.5 µM
[12] = Drug accumulation in ICR mouse liver at 10 mg/kg, iv measured upto 24 hrs by ICP-MS analysis; assay type: ADME, organism-based; conditions: in vivo
HL-60 = experiment: Upregulation of MDM2 mRNA expression in human HL-60 cells overexpressing p53-V272M mutant at 2 uM pretreated for 1 hr followed by culturing in fresh medium for 8 hrs by RT-qPCR analysis; assay type: functional, cell-based
[13] = Toxicity in M-NSG mouse xenografted with human U-937 cells harboring p53 V272M mutant assessed as reduction in body weight at 25 mg/kg, ip administered for 11 days and measured on day 18; assay type: organism-based; conditions: in vivo, 432 h, time 18 day

With `CC(=O)OC[C@H]1O[C@@H](S[As]2SCCS2)[C@H](OC(C)=O)[C@@H](OC(C)=O)[C@@H]1OC(C)=O` the Activity (U-937 [1]) was “Active”, the MST (U-937 [2]) was 18 days and the Activity [3] was 0.02. For the same compound, the Activity (U-937 [4]) was “Active”, the MST (U-937 [5]) was 16 days and the viability at 3 µM (NB-4 [6]) was 91.1%. For the same compound, the Activity (NB-4 [7]) was 20.9%, the Activity [8] was “inactive” and the Activity (U-937 [9]) was “Active”. For the same compound, the Drug uptake [10] was “Active”, the Activity (U-937 [11]) was “Active” and the Drug uptake [12] was “Active”. The Activity (HL-60) was “Active” and the Activity [13] was “Non-Toxic”.
